Assay: Dye stability under Xenon test conditions; UV absorption after Xenon exposure
Type: physicochemical
Conditions: thin layer on TAC base
Protocol: Measurements are carried out at the Ci 4000 Xenon Weather-Ometer of Atlas Electric Devices Company. The extinction wavelength spectrum represents sunlight spectrum. Experiments are carried out with samples consisting of thin layers of UV absorbing complexes coated on TAC base materials, and dryed under air before Xenon radiation was started.
Solutions for coating on the TAC sheet materials are prepared by making a 5% gelatin solution of UV-gelatin in a suitable solvent (water/ethanol 50:50) for 30 minutes at a temperature of 40 C.
A fixed concentration of the UV absorbing complex was applied with a concentration of 5*10^−3 Mol/L
UV absorption of samples is measured with standard UV spectrophotometer system. UV absorption is directly correlated to the number of functional molecules in the samples after the Xenon treatment, and the results are listed in the following table.
UV absorption after Xenon radiation (in hours treatment time).

UV absorption after Xenon radiation (0 hours treatment time): 0.85
UV absorption after Xenon radiation (40 hours treatment time): 0.53
UV absorption after Xenon radiation (80 hours treatment time): 0.20
UV absorption after Xenon radiation (120 hours treatment time): 0.14
SMILES: O=c1c(O)c(-c2ccc(O)c(O)c2)oc2cc(O)cc(O)c12 [Quercetin]
